Assay [1] deals with neutrophil granulocytes (PMNL). As to the kind of experiment: Granulocytic test modified after BRANDT (phagocytosis of yeast particles). The class given is cell-based, human. From the text: 1. […] They represent about 60-70% of all leucocytes in the human blood. The phagocytosis effect of all these granulocytes can be measured in vitro according to a method developed by BRAND (Scand. J. Haematol. Suppl. 2, 1967) and modified by TYMPNER (Munich Med. Weekly 8, 251, 1978).
A granulocytic fraction is taken from the blood of healthy probands (PMNL--abbreviation of polymorphonuclearleucocytes)
This PMNL-fraction mainly consists of neutrophil granulocytes and few eosinophil and basophil granulocytes as well as of lymphocytes, monocytes and thrombocytes. After addition of a defined amount of yeast cells (Saccharomyces cerevisiae) and the substance to be tested incubation is carried out for 10 minutes at 37° C., the suspension is spread on an object carrier and incubated at room temperature for further 35 minutes. Then the spreads are coloured and microscopically evaluated. 100 PMNL-cells are selected per object carrier, and it is determined how many yeast particles of the individual cells have been phagocytised. The phagocytosis index indicates the average number of phagocytised yeast particles.
15 ml of heparinised venous blood of clinically healthy adults was diluted with 1.5% of dextran T 500 (Pharmacia) 2:1 and allowed to stand at room temperature for 30 minutes. The supernatant containing leucocytes was injected into a sterile plastic tube and centrifugated for 7 minutes at 500 r.p.m. The granulocytes in the deposit were washed twice with 5 ml of PPM I-buffer in each case. Then the granulocytes were suspended in about 5 ml of buffer and adjusted in the Neubauer's chamber to a concentration of 5×10^6 cells/ml.
Yeast suspended in 0.9% of NaCl was heated to 100° C., three times filtered through gaze and adjusted to 3-5×10^7 particles/ml.
The serum of 5 clinically healthy adults was mixed and frozen in portions of 5 ml. For the test dilution was carried out with 0.9% of NaCl 1:10.
The test was carried out as follows: 0.2 ml of substance dissolved in 0.9% of NaCl and 0.2 ml of 0.9% NaCl, as a control substance, were pipetted to 0.2 ml, each, of pool serum, granulocyte- and yeast suspension and first incubated for 10 minutes at 37° C. Then 0.5 ml of each preparation were applied to an object carrier and incubated in a humid chamber at room temperature for further 35 minutes. Granulocytes deposited, the supernatant was carefully washed with 0.9% of NaCl, and the object carrier was dried with a dryer.
100 granulocytes were counted out per object carrier, and it was determined how many yeast particles of the individual cells had been phagocytised. The phagocytosis index (PJ) indicates the average number of yeast particles per granulocyte. The increase (S) of the phagocytosis activity in the blank value was calculated according to: [formula]

For assay [2], the system named is isolated polymorphonuclear leucocytes (PMNL). As to the kind of experiment: Chemiluminescence test (CL), PMNL method (isolated granulocytes). The note with it: CL method not stated. The class given is cell-based, human. Here is the method:
2. Chemiluminescence test (CL)
The low light yield of such CL-reactions of phagocytised cells is increased in the in-vitro-experiment by the addition of substances which are oxydated by activated oxygen and thus produce light of a certain wavelength, which can be physically measured. Suitable substrates are luminole (5-amino-2,3-dihydro-1,4-phthalazindione) and lucigenine (10,10'-dimethyl-9,9'-biacri-diniumdinitrate), which increase the CL-response by 10^3 times.
All tests were carried out in 6-channel-Biolumat LB 9505 of Berthold, connected to an Apple-computer with a CL-evaluation program of Berthold.
Lucigenine was chosen for light amplification which emits photons at a narrow wavelength distribution of about 510 nm and thus almost lies in the optimum of the photo-multiplier sensitivity.
The pH-value of the measuring solution should be between 7.1 and 7.4, which is obtained by the addition of veronal-buffered salt solution. The test substances were dissolved in phosphate-buffered salt solution, (PBS-buffer). Both buffer systems contain 0.1% of glucose, because the "respiratory-burst"-reaction is connected with an increase of the glucose-metabolism.
Opsonised zymosan was used for phagocyte-activation. The measurement of the CL of isolated granulocytes was carried out with native blood of isolated polymorphonuclear leucocytes (PMNL), which had been adjusted with PBS-Puffer to 10^6 […].
The test substances were first together with the isolated granulocytes or with the whole blood incubated at room temperature for 10 minutes and then in biclumate for 10 minutes at 37° C. After addition of the opsonised zymosan, measurement in the biolumat at 37° C. started. […] A curve which was typical for each substance was obtained. The integrated surfaces are directly proportional to the intensity of the CL-response.
For determining the stimulation of the "respiratory-burst" of granulocytes,which had taken place, the same formula as for the granulocytic test was used.
20 ml of native blood were mixed with 30 mg EDTA. 15 ml of this blood were mixed with 7 ml of dextran in a syringe and allowed to stand at room temperature for 30 minutes. The leucocyte-containing supernatant was transfered into a sterile centrifugal tube and centrifugated at 1000 r.p.m. for 10 minutes. The deposit consisted of leucocytes and residual portions of erythrocytes, which can influence measurement by their colour quench. The residual erythrocytes were removed by hypotonic lyis. For this purpose, the deposit was suspended in 0.25% of NaCl-solution and agitated on the whirlmix for 20 seconds. Then 20 ml of 1.6% NaCl-solution were admixed and agitated again. After centrifugation at 2000 r.p.m. for 10 minutes, the supernatant was sucked off and the whole process was repeated twice. Subsequently, the deposit was suspended in 2 ml of PBS-buffer and diluted 1:10 with Turcks-solution. It was adjusted in the Neubauer's chamber with PBS-buffer to 10^6 -cells/ml.
630 μl of veronal-buffered salt solution
100 μl of lucigenine-solution
200 μl of substance dissolved in PBS and PBS as control
After preincubation at room temperature for 10 minutes and subsequent incubation for 10 minutes at 37° C. in 6-channel-Biolumat, 40 μl of opsonised zymosan were admixed under through stirring and measurement was started. Measuring was stopped after 60 minutes.
The CL-response of the samples was stored by a computer over the measuring period, and after measurement illustrated in the form of a curve. By integration of the surfaces, the intensity of the CL-response of the respective sample was obtained in cpm.
The increase S of the CL-response by a test substance was calculated according to [formula]

[3] abbreviates: up to a concentration of 10^-4 %.

Like-named read-outs stand apart in the source and are kept apart here.

Turning to `COC(=O)C1=COC(C)C2CN3CCC4(C(=O)Nc5ccccc54)C3CC12` (single isomer, unassigned; isomer b) [Mitraphylline, normal-mitraphylline, isomer B], the “activity in the granulocytic test” value in assay [1] is listed as “not active”.
Regarding `COC(=O)C1=COC(C)C2CN3CCC4(C(=O)Nc5ccccc54)C3CC12` (single isomer, unassigned; isomer a) [Isomitraphylline, normal-isomitraphylline, isomer A], the “percental increase of the CL-response” value in assay [2] (concentration 10^-3 %) worked out at 15.4%; in assay [2] (concentration 10^-4 %), 15.7%; in assay [2] (concentration 10^-5 %) it was 36.1%; in assay [2] (concentration 10^-6 %), 46.7%; in assay [2] (concentration 10^-7 %), 18.6%. Also, the “activity in the granulocytic test” value in assay [1] is listed as “active”. For the same compound, the percental phagocytosis increase in assay [1] (concentration 10^-2) turned out to be 16.5%; in assay [1] (concentration 10^-3) it was 27.0%; in assay [1] (concentration 10^-4) it was 27.0%; in assay [1] (concentration 10^-5) it was 19.4%; in assay [1] (concentration 10^-6), 5.7%.
For the compound thalifabine [reference compound], the “effect in the granulocytic test” value in assay [1] (setting [3]) is listed as “negative”.
As to `C1CCN2C[C@@H]3C[C@@H](CN4CCCC[C@@H]34)[C@H]2C1` [sparteine, reference compound], in assay [1] (setting [3]), the “effect in the granulocytic test” value was “did not show any effect”.
Turning to `COC(=O)C1=COC(C)C2CN3CCC4(C(=O)Nc5ccccc54)C3CC12` (single isomer, unassigned; isomer b) [Pteropodine, allo-pteropodine, isomer B], the “percental increase of the CL-response” value in assay [2] (concentration 10^-3 %, listed as Pteropidine) turned out to be 10.6%; in assay [2] (concentration 10^-4 %, listed as Pteropidine) it was 10.0%; in assay [2] (concentration 10^-5 %, listed as Pteropidine), 23.7%; in assay [2] (concentration 10^-6 %, listed as Pteropidine) it was 15.4%. Moreover, the “activity in the granulocytic test” value in assay [1] is listed as “active”. Besides, the percental phagocytosis increase is listed as 11.2% in assay [1] (concentration 10^-2), 21.7% in assay [1] (concentration 10^-3), 26.1% in assay [1] (concentration 10^-4) and 23.0% in assay [1] (concentration 10^-5).
Turning to `CCC1CN2CCC3(C(=O)Nc4ccccc43)C2CC1C(=COC)C(=O)OC` (single isomer, unassigned; isomer a) [Isorhynchophylline, normal-isorhynchophylline, isomer A], the “activity in the granulocytic test” value in assay [1] was “active”. The percental phagocytosis increase in assay [1] (concentration 10^-2) came to 10.8%; in assay [1] (concentration 10^-3) it was 25.2%; in assay [1] (concentration 10^-4), 27.3%; in assay [1] (concentration 10^-5), 16.1%; in assay [1] (concentration 10^-6) it was 8.8%.
With `CCC1CN2CCC3(C(=O)Nc4ccccc43)C2CC1C(=COC)C(=O)OC` (single isomer, unassigned; isomer b) [Rhynchophylline, normal-rhynchophyllin, isomer B], the “activity in the granulocytic test” value in assay [1] was “not active”.
In the case of `CC[C@@]1(O)C(=O)OCc2c1cc1n(c2=O)Cc2cc3ccccc3nc2-1` [camotothecine, reference compound], the “effect in the granulocytic test” value in assay [1] (up to dilutions of 10^-6 %) was “no effects have been found”.
huangshanine [reference compound]: in assay [1] (setting [3]), the “effect in the granulocytic test” value was “negative”.
Turning to `COC(=O)C1=COC(C)C2CN3CCC4(C(=O)Nc5ccccc54)C3CC12` (single isomer, unassigned; isomer a) [Isopteropodine, allo-isopteropodine, isomer A], the activation at 1e-08 % in assay [2] (Homo sapiens, PMNL, concentration 10^-8 %, read-out: percental increase of the CL-response) stood at 31.2%. Also, the “percental increase of the CL-response” value in assay [2] (concentration 10^-3 %) stood at 67.2%; in assay [2] (concentration 10^-4 %), 66.0%; in assay [2] (concentration 10^-5 %), 55.7%; in assay [2] (concentration 10^-6 %) it was 68.1%; in assay [2] (concentration 10^-7 %), 55.3%. Besides, the “activity in the granulocytic test” value in assay [1] was “active”. In addition, the percental phagocytosis increase in assay [1] (concentration 10^-2) was 23.4%; in assay [1] (concentration 10^-3), 48.7%; in assay [1] (concentration 10^-4) it was 55.9%; in assay [1] (concentration 10^-5), 38.2%; in assay [1] (concentration 10^-6), 28.2%; in assay [1] (concentration 10^-7), 13.6%.
With `COc1ccc2cc3[n+](cc2c1OC)CCc1cc2c(cc1-3)OCO2` [berberine, reference compound], the “effect in the granulocytic test” value in assay [1] (setting [3]) was “inactive”.
Take `COc1cc2c(cc1OC)[C@H](Cc1ccc(Oc3c4c(cc(OC)c3OC)-c3c(OC)c(OC)c(OC)c5c3[C@H](C4)N(C)CC5)cc1)N(C)CC2` [thalifaberine, reference compound]: in assay [1] (setting [3]), the “effect in the granulocytic test” value is “negative”.
As for `O=c1cccc2n1C[C@@H]1CNC[C@H]2C1` [cytisine, reference compound], the “effect in the granulocytic test” value in assay [1] is given as “did not show any effect”.
Take `COC(=O)C1=COC(C)C2CN3CCC4(C(=O)Nc5ccccc54)C3CC12` (centres unmarked) [Speciophylline, speciophylline]: the percental phagocytosis increase in assay [1] (concentration 10^-2) was found to be 10.5%; in assay [1] (concentration 10^-3) it was 18.5%; in assay [1] (concentration 10^-4) it was 26.0%; in assay [1] (concentration 10^-5), 35.3%.
On the same counts, the results for `C=C[C@]12CN(C)[C@@H]3[C@H]4CO[C@H](C[C@H]41)[C@]1(C(=O)Nc4ccccc41)[C@@H]32` [Gelsemine, gelsemine, reference compound] are 22.1%, 40.4%, 33.7% and 8.2%.
